US20220073521A1, “PYRIMIDINE AND FIVE-MEMBERED NITROGEN HETEROCYCLE DERIVATIVE, PREPARATION METHOD THEREFOR, AND MEDICAL USES THEREOF” (Tuojie Biotech (Shanghai) Co., Ltd., priority 2018, published 2022)

Key:
[1] = biological target: T1, SHP2 wild-type phosphatase (recombinantly expressed full-length SHP2, aa 1-593) (Homo sapiens, UniProt Q06124); assay: In vitro activity on SHP2 wild-type phosphatase (DiFMUP fluorescence); settings: wild-type full-length SHP2, activated polypeptide IRS1 0.5 nM, DiFMUP 30 μM;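 further: enzyme preincubated at room temperature, then DiFMUP reaction run at room temperature and halted with SDS, potency derived from a logistic curve fit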
T1 sequence (Q06124 1-593): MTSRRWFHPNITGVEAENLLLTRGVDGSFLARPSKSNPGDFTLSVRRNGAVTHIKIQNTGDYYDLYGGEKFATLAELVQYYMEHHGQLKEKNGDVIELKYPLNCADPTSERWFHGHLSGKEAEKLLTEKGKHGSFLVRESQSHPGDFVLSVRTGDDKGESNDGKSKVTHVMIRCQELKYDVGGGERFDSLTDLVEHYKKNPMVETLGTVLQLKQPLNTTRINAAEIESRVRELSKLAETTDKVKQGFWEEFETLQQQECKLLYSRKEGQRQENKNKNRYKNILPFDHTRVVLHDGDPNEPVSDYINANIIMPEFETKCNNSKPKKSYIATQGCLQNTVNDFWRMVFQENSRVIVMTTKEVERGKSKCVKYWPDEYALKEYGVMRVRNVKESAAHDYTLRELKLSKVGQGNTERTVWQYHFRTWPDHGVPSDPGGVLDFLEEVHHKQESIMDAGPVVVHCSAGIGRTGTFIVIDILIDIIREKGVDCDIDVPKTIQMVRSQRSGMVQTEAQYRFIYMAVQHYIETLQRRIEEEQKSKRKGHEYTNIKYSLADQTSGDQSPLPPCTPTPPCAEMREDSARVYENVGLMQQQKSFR
Description: 0.2 nM recombinantly expressed full-length SHP2 (aa 1-593), 0.5 nM activated polypeptide IRS1 with double phosphorylation sites (sequence: H2N-LN(pY)IDLDLY(dPEG8)LST(pY)ASINFQK-amide) and a series of concentrations of the test compound (final concentrations were 1 μM, 0.3 μM, 0.1 μM, 0.03 μM, 0.01 μM, 0.003 μM, 0.001 μM, 0.0003 μM, 0.0001 μM, 0.00003 μM) were added to the phosphatase reaction solution (60 mM HEPES, pH 7.5 0.005% Brij-35, 75 mM NaCl, 75 mM KCl, 1 mM EDTA, 5 mM DTT). The reaction solution was shaked (350 rpm) at room temperature for 30 minutes. The reaction substrate DiFMUP with a final concentration of 30 μM was added, and the reaction solution was reacted at room temperature for 30 minutes. The phosphatase reaction was stopped by adding 5 μL of stop solution (60 mM HEPES, pH 7.5, 0.2% SDS). Ex358 nm/Em455 fluorescence value was read on the fluorescence plate reader MD SpectraMax.
The IC50 value of the compound was calculated using the four-parameter logit method. In the following formula, x represents the logarithmic form of the compound concentration, and F(x) represents the effect value (the inhibition rate of cell proliferation under the given concentration condition): F(x)=((A−D)/(1+((x/C)^B)))+D. A, B, C and D are four parameters. Different concentrations correspond to different inhibition rates, based on which an inverse curve was plotted, and the IC50 of the inhibitor was calculated from the curve. The IC50 of the compound was calculated with Primer premier 6.0.

KYSE-520 cells = assay: KYSE-520 cell proliferation experiment (CellTiter-Glo, 7 days); format: cell-based; settings: Homo sapiens
hERG potassium channel = biological target: T2, hERG potassium channel (Homo sapiens, UniProt Q12809); assay: hERG current inhibition experiment (manual patch clamp, CHO hERG cells); format: cell-based; settings: whole-cell patch clamp, tail current
T2 construct: host or cells: CHO hERG cells
T2 sequence (Q12809 whole entry): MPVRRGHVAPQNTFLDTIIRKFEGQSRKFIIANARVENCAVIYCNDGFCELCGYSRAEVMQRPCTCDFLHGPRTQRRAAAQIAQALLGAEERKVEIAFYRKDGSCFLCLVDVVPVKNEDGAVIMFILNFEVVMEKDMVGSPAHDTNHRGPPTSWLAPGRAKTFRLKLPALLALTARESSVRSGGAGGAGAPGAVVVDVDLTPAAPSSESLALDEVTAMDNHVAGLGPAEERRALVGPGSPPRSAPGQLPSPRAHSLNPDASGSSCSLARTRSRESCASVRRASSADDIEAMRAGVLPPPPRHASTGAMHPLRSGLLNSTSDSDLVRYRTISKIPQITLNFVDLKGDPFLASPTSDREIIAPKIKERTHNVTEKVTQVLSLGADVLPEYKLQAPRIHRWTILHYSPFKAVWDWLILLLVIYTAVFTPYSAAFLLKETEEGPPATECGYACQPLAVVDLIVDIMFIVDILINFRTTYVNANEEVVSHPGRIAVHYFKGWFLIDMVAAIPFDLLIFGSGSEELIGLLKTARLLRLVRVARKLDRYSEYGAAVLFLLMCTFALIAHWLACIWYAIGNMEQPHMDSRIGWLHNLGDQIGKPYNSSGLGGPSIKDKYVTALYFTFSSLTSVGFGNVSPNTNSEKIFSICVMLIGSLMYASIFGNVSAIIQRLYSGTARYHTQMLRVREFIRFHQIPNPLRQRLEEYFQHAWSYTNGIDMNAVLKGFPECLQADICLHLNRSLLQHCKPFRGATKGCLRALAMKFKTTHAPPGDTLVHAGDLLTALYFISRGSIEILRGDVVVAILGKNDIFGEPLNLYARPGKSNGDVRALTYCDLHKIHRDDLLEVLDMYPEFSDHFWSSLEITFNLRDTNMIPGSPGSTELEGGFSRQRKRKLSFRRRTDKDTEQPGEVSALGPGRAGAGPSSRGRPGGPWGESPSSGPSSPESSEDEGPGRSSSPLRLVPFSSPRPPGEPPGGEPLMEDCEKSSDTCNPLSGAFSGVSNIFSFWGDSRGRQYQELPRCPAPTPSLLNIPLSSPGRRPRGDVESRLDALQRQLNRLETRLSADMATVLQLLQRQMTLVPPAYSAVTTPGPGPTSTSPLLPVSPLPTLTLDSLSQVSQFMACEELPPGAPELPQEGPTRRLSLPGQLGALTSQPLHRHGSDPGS
Description: In this experiment, whole-cell current recording was performed using a manual patch clamp system (HEKA EPC-10 signal amplification and digital conversion system, purchased from HEKA Electronic, Germany). The round glass slide of which surface CHO hERG cells (provided by Sophion Bioscience Inc., Denmark, the cell generation number was P21) were grown on was placed in an electrophysiological recording slot under an inverted microscope. The recording slot was continuously perfused with extracellular fluid (approximately 1 mL per minute). Conventional whole-cell patch clamp current recording technique was used in the experiment. The experiments were performed at normal room temperature (˜25° C.). The cells were clamped at a voltage of −80 mV. Cell patch clamp voltage was depolarized to +20 mV to activate hERG potassium channel, and to −50 mV after 5 seconds to eliminate inactivation and generate tail currents. The tail current peak was used as a value of hERG current. When the hERG potassium current recorded in the above steps became steady under continuous perfusion of the extracellular fluid in the recording slot, the drug to be tested could be added to the perfusion, until the inhibition effect of the drug on hERG current reached a steady state. Generally, the overlapping of most recent three consecutive current recording lines was used as a criterion to determine whether the state was stable. After reaching the steady state, the recording slot was perfused with extracellular fluid until the hERG current returned to the value before the drug adding. The test data was analyzed by HEKA Patchmaster (V2x73.2), Microsoft Excel and the data analysis software provided by Graphpad Prism 5.0.

SMILES	IC50 [1] [nM]	IC50 (KYSE-520 cells) [nM]	IC50 (hERG potassium channel) [nM]
CNc1nccc(Sc2cnc(N3CCC4(CC3)Cc3ncccc3[C@H]4N)n3ccnc23)c1Cl [Example 43, (S)-1′-(8-((3-Chloro-2-(methylamino)pyridin-4-yl)thio)imidazo[1,2-c]pyrimidin-5-yl)-5,7-dihydrospiro[cyclopenta[b]pyridine-6,4′-piperidin]-5-amine]	2	30.4	10300
CNc1nccc(Sc2c(C)nc(N3CCC4(CC3)Cc3ncccc3[C@H]4N)n3ccnc23)c1Cl [Example 41, (S)-1′-(8-((3-Chloro-2-(methylamino)pyridin-4-yl)thio)-7-methylimidazo[1,2-c]pyrimidin-5-yl)-5,7-dihydrospiro[cyclopenta[b]pyridine-6,4′-piperidin]-5-amine]	2.1	58.3	10200
